Where two headings read alike, the source gives them in different places.
Tests used:
Assay type in all cases: cell-based
HIV-19881 = experiment: Anti-HIV-1 assay, non-syncytium inducing strain (p24); details: Human immunodeficiency virus 1, PBMC; HIV-19881, PBMCs, determined by p24
Protocol: (§1) ANTIVIRAL ASSAYS. The anti-HIV-1 activity of the compound A (−) were assessed by employing HIV-1IIIB in a variety of cell types as previously described (Gu et al., 1992, 1994, 1999; Rando et al., 1995; Salomon et al., 1994). Briefly, cells were incubated with virus at a multiplicity of infection (MOI) of 0.005 for T cell assays and an MOI of 0.5 for monocytic cell assays for 3 hrs. Unbound virus was then removed by washing the cells, followed by seeding the cells into a 96-well plate. The infected cells were cultured in the presence of a serial concentrations of the test compound for 5-7 days. The anti-HIV-1 efficacy was determined by testing for HIV-1 RT activity or p24 level in the cell culture supernatants. All assays were performed in duplicate. Zidovudine and/or lamivudine were used as controls in each experiment.
(§2) Furthermore, antiretroviral activity of the compound A (−) was also assessed using different types of HIV-1 strains. […]

HIV-1IIIB = experiment: Anti-HIV-1 antiviral assay with HIV-1IIIB in various cell types (RT activity)
Protocol: as §1
Activity of the compound A (−) against HIV-1 in various cells. Anti-HIV-1 activity of the compound A (−) were tested in different types of cells, including human peripheral […] cells (PBMCs), T-cell (MT-2 and MT-4) and monocytic cell (U937) lines. The compound A (−) had submicromolar EC50s against HIV-1IIIB in different types of cells tested (Table 2).

HXB2-D (wt) = experiment: Recombinant HIV-1 variants (RT activity); details: Human immunodeficiency virus 1, HXB2
Protocol: as §1
(§3) Recombinant HIV-1 variants were prepared by introducing the designed mutations into HXB2-D by site-directed mutagenesis as described (Gu et al. 1992, 1994). The virus stocks were prepared by transfecting MT-4 cells with infectious viral DNA constructs. Antiviral activity of the compound A (−) was evaluated as described in example 10.

HIV-1macBAL = experiment: Anti-HIV-1 assay, dual tropic strain (p24); details: determined by p24
Protocol: as §1, §2

HIV-1WRM8488 = experiment: Anti-HIV-1 assay, monocytropic strain (p24); details: Human immunodeficiency virus 1; HIV-1WRM8488, m/m cells, determined by p24
Protocol: as §1, §2

[1] = Cellular toxicity by WST-1 staining; details: human, CBMCs
Protocol: The cellular toxicity of the compounds were assessed on various cells using [^3H]-thymidine uptake. Various cells, including Molt-4, HT1080, DU-145, HepG-2 and HSF, were plated at a concentration of 1-2×10^3 cells per well (96 well plates). After a 24 hr incubation period, 10-fold serial diluted compounds (b 10^−4 M to 10^−10 M) were added to the culture medium and the cells were further incubated for 72 hrs. [^3H]-thymidine was added during the final 18 hr incubation period. After incubation with the [^3H]-thymidine, the cells were washed once with PBS, treated with trypsin if the cells were adherent, and then resuspended in water (hypotonic lysing of cells). The cellular extract was applied directly to a Tomtec Harvester 96. Using this instrument the extracted DNA is adsorbed onto filters, washed and the incorporated [^3H]-thymidine is then counted. The 50% cytotoxic concentration (CC50) was determined by comparing the radioactive counts per minute of the samples in the presence of the compounds against the control. The cellular toxicity of the compounds was also tested by WST-1 staining through assessing proliferation of MT-2, H9, Jurkat, U937, and CBMCs. The established cell lines were cultured in RPMI medium in 96-well plates at a density of 5×10^4 cells/well while CBMCs were plated at a concentration of 0.5×10^6/well. A 10-fold serial diluted (10^−4-10^−7 M) compound was added at day zero. At day 4, the cells were passaged by changing half medium containing appropriately diluted compound. The cell activities were assessed at day 7 using the WST-1 reagent (Boehringer Mannheim) following the protocol provided by the supplier.
In the WST-1 staining experiments, cell lines were cultured in RPMI medium in 96-well plates at a density of 5×10^4 cells/well. CBMCs were plated at a concentration of 0.5×10^6/well. Compounds (10^−4-10^−7 M) were added at day zero. Cell viability was assessed on day 7 using the WST-1 reagent (Boehringer Mannheim) following the protocol provided by the supplier.

K65R = experiment: Recombinant drug resistant HIV-1 variants (RT activity); details: Human immunodeficiency virus 1
Protocol: as §1, §3

JM1 = experiment: as above; details: Human immunodeficiency virus 1, JM1
Protocol: as §1, §3

L74V = experiment: as above; details: Human immunodeficiency virus 1
Protocol: as §1, §3

M184I = experiment: as above; details: Human immunodeficiency virus 1
Protocol: as §1, §3

NNRTI^R = experiment: as above; details: Human immunodeficiency virus 1
Protocol: as §1, §3

DU-145 = experiment: Cellular toxicity by [3H]-thymidine uptake; details: 72 hrs
Method in brief: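 Cells plated at 1-2×10^3/well, pre-incubated 24 h, then exposed 72 h to 10-fold serial compound dilutions (10^−4 M to 10^−10 M). [3H]-thymidine was added for the final 18 h and DNA incorporation counted after hypotonic lysis and harvesting. CC50 derived from cpm relative to untreated controls.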

[2] = Human immunodeficiency virus 1, HIV-1IIIB, MT-2 (4 determinations), RT activity, read-out: EC50
[3] = Human immunodeficiency virus 1, HIV-1IIIB, MT-4 (2 determinations), RT activity, read-out: EC50
[4] = Human immunodeficiency virus 1, MT2, HIV-1IIIB, MT-2 cells, determined by RT activity, read-out: EC50 (μM) ± S.D. in MT-2 cells
[5] = Human immunodeficiency virus 1, PBMC, HIV-1IIIB, PBMCs (3 determinations), RT activity, read-out: EC50
[6] = Human immunodeficiency virus 1, U-937, HIV-1IIIB, U937 (1 determination), RT activity, read-out: EC50
[7] = Human immunodeficiency virus 1, PBMC, PBMCs
[8] = Human immunodeficiency virus 1, m/m cells

In the case of `Nc1nc(NC2CC2)c2ncn([C@H]3CO[C@@H](CO)O3)c2n1` [Compound A (-), (−)-(2R,4R)-2-hydroxymethyl-4-(2′-amino-6′-cyclopropylamino-purine-9′-yl)-1,3-dioxolane], the EC50 (HIV-19881) is reported as 590 nM, the EC50 (HIV-1IIIB; [2]) is reported as 0.082 µM and the EC50 (HIV-1IIIB; [3]) is reported as 0.14 µM. It also gave an EC50 (HIV-1IIIB; [4]) of 0.083 µM, an EC50 (HIV-1IIIB; [5]) of 0.22 µM and an EC50 (HIV-1IIIB; [6]) of 0.82 µM. For the same compound, the EC50 (HXB2-D (wt)) was 530 nM, the EC50 (HIV-1macBAL; [7]) was 4140 nM and the EC50 (HIV-1macBAL; [8]) was 22 nM. For the same compound, the EC50 (HIV-1WRM8488) was 28 nM, the CC50 at 7 days ([1]; Table 14, day 7, read-out: CC50 (μM) WST-1 CBMC) was > 100 µM and the EC50 (K65R) was 1030 nM. It also gave an EC50 (JM1) of 1830 nM, an EC50 (L74V) of 620 nM and an EC50 (M184I) of 990 nM. The EC50 (NNRTI^R) was 100 nM.
`Nc1ccn([C@@H]2CS[C@H](CO)O2)c(=O)n1` [Lamivudine, lamivudine] gave an EC50 (HIV-1IIIB; [2]) of 0.061 µM, an EC50 (HIV-1IIIB; [3]) of 0.17 µM and an EC50 (HIV-1IIIB; [4]) of 0.061 ± 0.028 µM. It also gave an EC50 (HIV-1IIIB; [5]) of 0.035 µM, an EC50 (HIV-1IIIB; [6]) of 0.014 µM and an EC50 (HXB2-D (wt)) of 350 nM. For the same compound, the “CC50 (μM) [^3H-]TTP incorporation in: U-145” value (DU-145; Table 4) was >500/100, the EC50 (K65R) was 4310 nM and the EC50 (JM1) was > 40000 nM. The EC50 (L74V) was 510 nM, the EC50 (M184I) was > 40000 nM and the EC50 (NNRTI^R) was 150 nM.
`Cc1cn([C@H]2C[C@H](N=[N+]=[N-])[C@@H](CO)O2)c(=O)[nH]c1=O` [Zidovudine, zidovudine] showed an EC50 (HIV-19881) of 1.7 nM, an EC50 (HIV-1IIIB; [2]) of 0.0051 µM and an EC50 (HIV-1IIIB; [3]) of 0.015 µM. For the same compound, the EC50 (HIV-1IIIB; [4]) was 0.0051 ± 0.0025 µM, the EC50 (HIV-1IIIB; [5]) was 0.0027 µM and the EC50 (HIV-1IIIB; [6]) was 0.027 µM. For the same compound, the EC50 (HXB2-D (wt)) was 23 nM, the EC50 (HIV-1macBAL; [7]) was 43 nM and the EC50 (HIV-1macBAL; [8]) was < 1.1 nM. For the same compound, the EC50 (HIV-1WRM8488) was < 1.1 nM, the CC50 at 7 days ([1]; Table 4, day 7, read-out: CC50 (μM) WST-1 CBMC) was 74 µM and the CC50 (DU-145; Table 14, read-out: CC50 (μM) [^3H]TTP incorporation in: U145) was > 10 µM. It also gave an EC50 (JM1) of 27 nM, an EC50 (L74V) of 10 nM and an EC50 (M184I) of 9 nM. The EC50 (NNRTI^R) was 6.1 nM.
